From the supplement of paper PMC10331698
± gives the standard deviation of the averaged measurements.

How the values were obtained:
Assay in all cases: level (log10 ratio to DMSO vehicle control); higher = higher biomarker level / cell amount than vehicle control
Settings in all cases: in DMSO
[1] = compound: C=C(C)C(=O)OCC(F)(F)C(F)(F)C(F)(F)C(F)(F)C(F)(F)C(F)(F)C(F)(F)F
Description: (§1)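 BioMAP Diversity Plus panel of 12 human primary cell co-culture systems (3C, 4H, LPS, SAg, BT, BF4T, BE3C, CASM3C, HDF3CGF, KF3CT, MyoF, Mphg). Compounds were added 1 h before stimulation and left for 24 h (MyoF 48 h; BT 72 h for soluble read-outs or 6 d for IgG). Biomarkers were read by ELISA, cytotoxicity by SRB, PBMC viability and proliferation by Alamar Blue. Each well value was divided by the mean of 8 DMSO control wells on the same plate and log10 transformed; duplicate blinded samples were tested at 4 concentrations.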

[2] = compound: C=CC(=O)OCCC(F)(F)C(F)(F)C(F)(F)C(F)(F)F [2-(Perfluorobutyl)ethyl acrylate]
Description: as §1

[3] = compound: Cn1cnc([N+](=O)[O-])c1Sc1ncnc2[nH]cnc12 [Azathioprine]
Description: as §1

[4] = compound: O=C(O)C(F)(F)C(F)(F)C(F)(F)C(F)(F)C(F)(F)C(F)(F)C(F)(F)C(F)(F)C(F)(F)C(F)(F)C(F)(F)C(F)(F)C(F)(F)F [Perfluorotetradecanoic acid]
Description: as §1

[5] = compound: O=C(O)C(F)(F)C(F)(F)C(F)(F)C(F)(F)C(F)(F)C(F)(F)C(F)(F)C(F)(F)C(F)(F)C(F)(F)C(F)(F)C(F)(F)F [Perfluorotridecanoic acid]
Description: as §1

[6] = compound: O=C(O)CCC(F)(F)C(F)(F)C(F)(F)F [3:3 Fluorotelomer carboxylic acid]
Description: as §1

| Test System | level (log10) ([1]; 6700 nM) | level (log10) ([1]; 20000 nM) | level (log10) ([2]; 6700 nM) | level (log10) ([2]; 20000 nM) | level (log10) ([2]; 60000 nM) | level (log10) ([3]; 1400 nM) | level (log10) ([3]; 4200 nM) | level (log10) ([3]; 13000 nM) | level (log10) ([3]; 38000 nM) | level (log10) ([4]; 6700 nM) | level (log10) ([4]; 20000 nM) | level (log10) ([5]; 1500 nM) | level (log10) ([5]; 4400 nM) | level (log10) ([5]; 13000 nM) | level (log10) ([5]; 40000 nM) | level (log10) ([6]; 6700 nM) | level (log10) ([6]; 20000 nM) | level (log10) ([6]; 60000 nM) |
| --- | --- | --- | --- | --- | --- | --- | --- | --- | --- | --- | --- | --- | --- | --- | --- | --- | --- | --- |
| MyoF:Collagen III | -0.014 ± 0.0014 | -0.014 ± 0.0042 | -0.009 ± 0.016 | -0.006 ± 0.0028 | -0.0265 ± 0.013 | -0.019 ± 0.021 | -0.0135 ± 0.016 | -0.0275 ± 0.0064 | -0.0115 ± 0.0092 | -0.015 | -0.002 ± 0.03 | -0.015 ± 0.025 | -0.0115 ± 0.012 | -0.026 ± 0.02 | -0.044 ± 0.0071 | -0.0125 ± 0.005 | -0.005 ± 0.011 | -0.0145 ± 0.0064 |
| MyoF:Collagen IV | -0.0155 ± 0.0064 | 0.0195 ± 0.016 | 0.0195 ± 0.0078 | -0.0085 ± 0.012 | 0.0295 ± 0.035 | 0.008 ± 0.0042 | 0.0065 ± 0.0092 | -0.013 ± 0.013 | 0.02 ± 0.016 | -0.002 ± 0.0071 | 0.023 ± 0.016 | -0.0095 ± 0.043 | 0.002 ± 0.018 | 0.004 ± 0.04 | 0.064 ± 0.013 | -0.0275 ± 0.042 | -0.029 ± 0.031 | -0.004 ± 0.035 |
| MyoF:Decorin | -0.011 ± 0.04 | 0.0175 ± 0.081 | 0.0005 ± 0.016 | 0.004 ± 0.016 | 0.022 ± 0.037 | -0.007 ± 0.024 | -0.009 ± 0.023 | -0.0165 ± 0.015 | -0.013 ± 0.018 | 0.033 ± 0.027 | 0.0515 ± 0.026 | 0.046 ± 0.05 | 0.06 ± 0.035 | 0.047 ± 0.047 | 0.0365 ± 0.039 | -0.024 ± 0.0028 | -0.0115 ± 0.015 | -0.004 ± 0.024 |
| MyoF:MMP-1 | -0.0245 ± 0.0092 | 0.0025 ± 0.086 | 0.0005 ± 0.0092 | 0.024 ± 0.017 | 0.0405 ± 0.012 | 0.0065 ± 0.047 | 0.0165 ± 0.019 | -0.0215 ± 0.021 | 0.0315 ± 0.0021 | -0.0305 ± 0.015 | 0.002 ± 0.017 | -0.0005 ± 0.021 | 0.018 ± 0.016 | -0.025 ± 0.0099 | 0.014 ± 0.02 | -0.0385 ± 0.052 | -0.0305 ± 0.013 | 0.01 ± 0.028 |
| MyoF:PAI-I | 0.0005 ± 0.011 | 0.005 ± 0.0042 | -0.003 ± 0.0071 | 0.001 ± 0.023 | 0.0005 ± 0.018 | -0.004 ± 0.0085 | -0.0025 ± 0.0064 | -0.0015 ± 0.005 | 0 ± 0.0085 | 0.0115 ± 0.0064 | 0.006 | 0.013 ± 0.013 | -0.002 | -0.0035 ± 0.00071 | 0.012 ± 0.0085 | -0.0055 ± 0.005 | -0.003 | 0.003 ± 0.0042 |
